Results as given in US10336762B2 (priority 2017, dated 2019).
Where two headings read alike, the source gives them in different places.

Legend:
IRAK4 enzyme = IRAK4 enzyme (Homo sapiens (Human), UniProt Q9NWZ3); test: biochemical; assay type: biochemical; conditions: IRAK4 enzyme, 500 μM ATP
TNFα = test: cells; assay type: cell-based, human; conditions: Homo sapiens, Monocyte, LPS-stimulated human monocytes, read-out: EC50 TNF

Sequence of IRAK4 enzyme (Q9NWZ3 whole entry): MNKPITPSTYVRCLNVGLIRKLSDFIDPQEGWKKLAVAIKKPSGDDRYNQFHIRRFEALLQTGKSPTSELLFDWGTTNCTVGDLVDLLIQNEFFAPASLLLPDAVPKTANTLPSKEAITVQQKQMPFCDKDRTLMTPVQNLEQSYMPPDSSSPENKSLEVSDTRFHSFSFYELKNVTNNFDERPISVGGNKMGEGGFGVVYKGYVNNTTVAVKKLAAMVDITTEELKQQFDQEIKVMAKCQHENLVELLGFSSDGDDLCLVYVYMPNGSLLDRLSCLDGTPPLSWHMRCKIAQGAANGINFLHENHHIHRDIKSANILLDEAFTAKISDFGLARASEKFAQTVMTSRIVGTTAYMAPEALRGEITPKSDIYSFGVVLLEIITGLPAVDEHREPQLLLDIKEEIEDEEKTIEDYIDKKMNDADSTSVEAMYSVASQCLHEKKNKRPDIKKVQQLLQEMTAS

## CC(C)(O)[C@H](F)CNC(=O)c1cnc(-c2ccc3cc(C#N)cnn23)cc1Nc1sc2c(c1C(N)=O)CCCC2 [Example 365, (R)-4-((3-carbamoyl-4,5,6,7-tetrahydrobenzo[b]thiophen-2-yl)amino)-6-(3-cyanopyrrolo[1,2-b]pyridazin-7-yl)-N-(2-fluoro-3-hydroxy-3-methylbutyl)nicotinamide]
IRAK4 enzyme; TR-FRET
  IC50: 4 nM
TNFα; TNFα content
  EC50: 415 nM

## CC1(O)CCC(Nc2cc(-c3ccc4cc(C#N)cnn34)ncc2C(=O)NC[C@@H](F)C(C)(C)O)CC1 (stereo partly drawn) [Example 154, 6-(3-cyanopyrrolo[1,2-b]pyridazin-7-yl)-N-((R)-2-fluoro-3-hydroxy-3-methylbutyl)-4-(((1s,4S)-4-hydroxy-4-methyl-cyclohexyl)amino)nicotinamide]
IRAK4 enzyme; TR-FRET
  IC50: < 1 nM
TNFα; TNFα content
  EC50: 34 nM

## CNC(=O)c1cnc(-c2ccc3cc(C#N)cnn23)cc1NC12CC(NC(=O)C3CC3)(C1)C2 [Example 480, 6-(3-cyanopyrrolo[1,2-b]pyridazin-7-yl)-4-((3-(cyclopropanecarboxamido)bicyclo[1.1.1]pentan-1-yl)amino)-N-methylnicotin-amide]
IRAK4 enzyme; TR-FRET (HTRF)
  IC50: 2 nM
TNFα; TNFα content
  EC50: 92 nM

## CC(C)(O)[C@H](F)CNC(=O)c1cnc(-c2ccc3cc(C#N)cnn23)cc1Nc1ccc(C(F)(F)F)nc1 [Example 186, (R)-6-(3-cyanopyrrolo[1,2-b]pyridazin-7-yl)-N-(2-fluoro-3-hydroxy-3-methylbutyl)-4-((6-(trifluoromethyl)pyridin-3-yl)amino)nicotinamide]
IRAK4 enzyme; TR-FRET
  IC50: 1 nM
TNFα; TNFα content
  EC50: 145 nM

## CC(C)(O)[C@H](F)CNC(=O)c1cnc(-c2ccc3cc(C#N)cnn23)cc1Nc1nc(Cc2ccccc2)ns1 [Example 335, (R)-4-((3-benzyl-1,2,4-thiadiazol-5-yl)amino)-6-(3-cyanopyrrolo[1,2-b]pyridazin-7-yl)-N-(2-fluoro-3-hydroxy-3-methylbutyl)nicotinamide]
IRAK4 enzyme; TR-FRET
  IC50: 3 nM
TNFα; TNFα content
  EC50: 100 nM

## CC(C)(O)[C@H](F)CNC(=O)c1cnc(-c2ccc3cc(C#N)cnn23)cc1Nc1ccc(CC#N)nc1 [Example 678, (R)-4-((6-(cyanomethyl)pyridin-3-yl)amino)-6-(3-cyanopyrrolo[1,2-b]pyridazin-7-yl)-N-(2-fluoro-3-hydroxy-3-methylbutyl)nicotinamide]
IRAK4 enzyme; TR-FRET (HTRF)
  IC50: < 1 nM
TNFα; TNFα content
  EC50: 9 nM

## Cc1nnc(N[C@H]2CC[C@H](Nc3cc(-c4ccc5cc(C#N)cnn45)ncc3C(=O)NC[C@@H](F)C(C)(C)O)CC2)o1 [Example 269, 6-(3-cyanopyrrolo[1,2-b]pyridazin-7-yl)-N-((R)-2-fluoro-3-hydroxy-3-methylbutyl)-4-(((1R,4R)-4-((5-methyl-1,3,4-oxadiazol-2-yl)amino)cyclohexyl)amino)nicotinamide]
IRAK4 enzyme; TR-FRET
  IC50: 1 nM
TNFα; TNFα content
  EC50: 59 nM

## CC(C)(O)[C@H](F)CNC(=O)c1cnc(-c2ccc3cc(C#N)cnn23)cc1N[C@H]1C[C@H](CNC(=O)C2CC(F)(F)C2)C1 [Example 940, 6-(3-cyanopyrrolo[1,2-b]pyridazin-7-yl)-4-(((1r,3R)-3-((3,3-difluorocyclobutane-1-carboxamido)methyl)cyclobutyl)amino)-N-((R)-2-fluoro-3-hydroxy-3-methylbutyl)nicotinamide]
IRAK4 enzyme; TR-FRET
  IC50: < 1 nM
TNFα; TNFα by TR-FRET
  EC50: 44 nM

## CC(C)CC(=O)NC[C@H]1C[C@H](Nc2cc(-c3ccc4cc(C#N)cnn34)ncc2C(=O)NC[C@@H](F)C(C)(C)O)C1 [Example 826, 6-(3-cyanopyrrolo[1,2-b]pyridazin-7-yl)-N-((R)-2-fluoro-3-hydroxy-3-methylbutyl)-4-(((1r,3R)-3-((3-methylbutanamido)methyl)cyclobutyl)amino)nicotinamide]
IRAK4 enzyme; TR-FRET
  IC50: < 1 nM
TNFα; TNFα by TR-FRET
  EC50: 32 nM

## CC(C)(O)[C@H](F)CNC(=O)c1cnc(-c2ccc3cc(C#N)cnn23)cc1N[C@H]1C[C@H](C(C)(C)O)C1 [Example 548, 6-(3-cyanopyrrolo[1,2-b]pyridazin-7-yl)-N-((R)-2-fluoro-3-hydroxy-3-methylbutyl)-4-(((1r,3R)-3-(2-hydroxypropan-2-yl)cyclobutyl)amino) nicotinamide]
IRAK4 enzyme; TR-FRET (HTRF)
  IC50: 1 nM
TNFα; TNFα content
  EC50: 22 nM
